The molecules below were run against human Nav1.7 (Homo sapiens, UniProt Q15858) (assay: FLIPR sodium dye assay (CoroNa Green AM Na+ dye, primary fluorescence assay) in recombinant Nav1.7/HEK293 cells). Conditions: not given.
Assay type: cell-based

Sequence of human Nav1.7 (Q15858 1-1977 isoform Q15858-3): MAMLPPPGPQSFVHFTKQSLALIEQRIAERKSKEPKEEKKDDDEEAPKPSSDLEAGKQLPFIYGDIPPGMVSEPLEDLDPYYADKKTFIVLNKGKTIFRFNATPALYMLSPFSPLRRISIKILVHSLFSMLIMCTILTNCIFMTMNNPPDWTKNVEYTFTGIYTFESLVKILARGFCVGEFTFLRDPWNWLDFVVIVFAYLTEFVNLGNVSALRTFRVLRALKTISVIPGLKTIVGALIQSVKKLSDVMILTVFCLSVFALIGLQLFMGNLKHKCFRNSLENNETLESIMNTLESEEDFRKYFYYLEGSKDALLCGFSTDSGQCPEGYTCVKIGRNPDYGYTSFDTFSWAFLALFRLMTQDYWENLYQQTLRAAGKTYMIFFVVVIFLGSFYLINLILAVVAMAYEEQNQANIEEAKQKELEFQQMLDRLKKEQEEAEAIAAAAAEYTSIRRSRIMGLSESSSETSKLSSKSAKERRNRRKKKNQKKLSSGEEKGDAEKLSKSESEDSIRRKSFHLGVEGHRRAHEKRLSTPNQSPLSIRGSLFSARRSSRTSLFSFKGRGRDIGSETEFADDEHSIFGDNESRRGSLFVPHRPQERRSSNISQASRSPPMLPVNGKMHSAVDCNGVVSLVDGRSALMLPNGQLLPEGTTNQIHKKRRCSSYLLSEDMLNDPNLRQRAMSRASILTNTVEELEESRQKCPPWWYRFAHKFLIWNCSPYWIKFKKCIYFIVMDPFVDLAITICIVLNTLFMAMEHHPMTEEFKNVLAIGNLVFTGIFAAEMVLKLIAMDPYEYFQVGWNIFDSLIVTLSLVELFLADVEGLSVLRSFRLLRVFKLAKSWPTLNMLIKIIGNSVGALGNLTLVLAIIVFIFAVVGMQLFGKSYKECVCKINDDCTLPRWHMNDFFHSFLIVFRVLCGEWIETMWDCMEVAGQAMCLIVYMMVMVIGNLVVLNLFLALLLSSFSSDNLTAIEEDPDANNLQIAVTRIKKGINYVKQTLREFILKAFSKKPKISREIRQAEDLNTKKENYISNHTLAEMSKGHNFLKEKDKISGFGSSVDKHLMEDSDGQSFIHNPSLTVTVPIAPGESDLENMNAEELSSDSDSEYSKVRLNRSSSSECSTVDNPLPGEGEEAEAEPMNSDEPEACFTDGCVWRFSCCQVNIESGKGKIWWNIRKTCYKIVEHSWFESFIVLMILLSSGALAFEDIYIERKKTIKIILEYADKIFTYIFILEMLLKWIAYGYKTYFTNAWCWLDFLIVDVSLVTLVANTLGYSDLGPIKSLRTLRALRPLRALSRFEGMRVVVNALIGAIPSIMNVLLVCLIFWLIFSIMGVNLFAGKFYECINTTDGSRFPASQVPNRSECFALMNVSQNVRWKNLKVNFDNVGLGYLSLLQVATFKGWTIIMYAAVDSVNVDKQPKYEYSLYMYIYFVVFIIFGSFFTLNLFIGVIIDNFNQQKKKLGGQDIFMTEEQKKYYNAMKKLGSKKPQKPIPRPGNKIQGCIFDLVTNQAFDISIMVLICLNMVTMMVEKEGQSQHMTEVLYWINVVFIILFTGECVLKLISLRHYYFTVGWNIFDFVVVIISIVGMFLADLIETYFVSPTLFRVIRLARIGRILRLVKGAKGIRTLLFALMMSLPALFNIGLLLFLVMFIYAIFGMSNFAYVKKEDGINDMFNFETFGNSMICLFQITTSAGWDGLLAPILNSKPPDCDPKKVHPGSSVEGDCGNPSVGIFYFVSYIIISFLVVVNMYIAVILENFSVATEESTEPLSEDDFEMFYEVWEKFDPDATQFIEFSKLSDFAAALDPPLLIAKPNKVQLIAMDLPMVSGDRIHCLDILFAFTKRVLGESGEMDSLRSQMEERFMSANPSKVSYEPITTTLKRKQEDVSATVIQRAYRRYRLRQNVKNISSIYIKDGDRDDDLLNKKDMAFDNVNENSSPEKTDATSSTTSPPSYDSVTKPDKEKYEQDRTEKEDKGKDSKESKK

SMILES	IC50
NC(=O)c1cc(N[C@@H]2CCNC2=O)nc(-c2ccc(Oc3ccc(C(F)(F)F)cn3)cc2)n1 [compound 149, (R)-6-((2-oxopyrrolidin-3-yl)amino)-2-(4-((5-(trifluoromethyl)pyridin-2-yl)oxy)phenyl)pyrimidine-4-carboxamide]	0.32 µM

Same assay, conditions: Table 6; CoroNa Green AM Na+ dye primary fluorescence assay; read-out: Nav1.7 Activity (μM) FLIPR assay IC50

IC50	SMILES
> 20 µM	C[C@H](Nc1cc(C(N)=O)nc(-c2ccc(Oc3ccc(C#N)cc3)cc2C(F)(F)F)n1)C(N)=O [compound 128, (S)-6-((1-amino-1-oxopropan-2-yl)amino)-2-(4-(4-cyanophenoxy)-2-(trifluoromethyl)phenyl)pyrimidine-4-carboxamide]
0.26 µM	C[C@H](Oc1cc(C(N)=O)nc(-c2ccc(Oc3ccc4c(c3)CCC4)cc2)n1)C(N)=O [compound 129, (S)-6-((1-amino-1-oxopropan-2-yl)oxy)-2-(4-((2,3-dihydro-1H-inden-5-yl)oxy)phenyl)pyrimidine-4-carboxamide]
1.77 µM	COCc1cc(Oc2ccc(F)cc2)ccc1-c1nc(N[C@@H](C)C(N)=O)cc(C(N)=O)n1 [compound 130, (S)-6-((1-amino-1-oxopropan-2-yl)amino)-2-(4-(4-fluorophenoxy)-2-(methoxymethyl)phenyl)pyrimidine-4-carboxamide]
0.22 µM	CN1CCC(Nc2cc(C(N)=O)nc(-c3ccc(Oc4ccc(F)cc4)cc3)n2)C1=O (stereo not shown) [compound 131, 2-(4-(4-fluorophenoxy)phenyl)-6-((1-methyl-2-oxopyrrolidin-3-yl)amino)pyrimnidine-4-carboxamide]
0.28 µM	NC(=O)c1cc(N2CC[C@H]2C(N)=O)nc(-c2ccc(Oc3ccc(F)cc3)cc2)n1 [compound 132, (S)-6-(2-carbamoylazetidin-1-yl)-2-(4-(4-fluorophenoxy)phenyl)pyrimidine-4-carboxamide]
> 20 µM	NC(=O)c1cc(N[C@H]2CCNC2=O)nc(N2CC3CC2CN3Cc2ccc(OC(F)(F)F)cc2)n1 (stereo partly drawn) [compound 136, 6-(((S)-2-oxopyrrolidin-3-yl)amino)-2-(5-(4-(trifluoromethoxy)benzyl)-2,5-diazabicyclo[2.2.1]heptan-2-yl)pyrimidine-4-carboxamide]
4.17 µM	O=C(NCCN1CCCC1)c1cc(N[C@H]2CCNC2=O)nc(-c2ccc(Oc3ccc(C(F)(F)F)cn3)cc2)n1 [compound 137, (S)-6-((2-oxopyrrolidin-3-yl)amino)-N-(2-(pyrrolidin-1-yl)ethyl)-2-(4-((5-(trifluoromethyl)pyridin-2-yl)oxy)phenyl)pyrimidine-4-carboxamide]
> 20 µM	NC(=O)c1cc(N[C@H]2CCNC2=O)nc(N2CC3CC2CN3Cc2ccc(F)cc2)n1 (stereo partly drawn) [compound 139, 2-(5-(4-fluorobenzyl)-2,5-diazabicyclo[2.2.1]heptan-2-yl)-6-(((S)-2-oxopyrrolidin-3-yl)amino)pyrimidine-4-carboxamide]
0.74 µM	NC(=O)c1cc(N[C@H]2CCNC2=O)nc(-c2ccc(Oc3cnc(C(F)(F)F)cn3)cc2)n1 [compound 141, (S)-6-((2-oxopyrrolidin-3-yl)amino)-2-(4-((5-(trifluoromethyl)pyrazin-2-yl)oxy)phenyl)pyrimidine-4-carboxamide]
1.3 µM	NC(=O)c1cc(N[C@H]2CCNC2=O)nc(-c2ccc(Oc3ccc(F)cc3)c(CN3CCCCC3)c2)n1 [compound 143, (S)-2-(4-(4-fluorophenoxy)-3-(piperidin-1-ylmethyl)phenyl)-6-((2-oxopyrrolidin-3-yl)amino)pyrimidine-4-carboxamide]
1.18 µM	NC(=O)c1cc(N[C@H]2CCNC2=O)nc(-c2ccc(Oc3ccc(OCC(F)(F)F)cn3)cc2)n1 [compound 144, (S)-6-((2-oxopyrrolidin-3-yl)amino)-2-(4-((5-(2,2,2-trifluoroethoxy)pyridin-2-yl)oxy)phenyl)pyrimidine-4-carboxamide]
1.38 µM	NC(=O)c1cc(N[C@H]2CCNC2=O)nc(-c2ccc(Oc3ccc(COCC(F)(F)F)cn3)cc2)n1 [compound 145, (S)-6-((2-oxopyrrolidin-3-yl)amino)-2-(4-((5-((2,2,2-trifluoroethoxy)methyl)pyridin-2-yl)oxy)phenyl)pyrimidine-4-carboxamide]
0.54 µM	C[C@H](Oc1cc(C(N)=O)nc(-c2ccc(Oc3ccc(C(F)(F)F)cn3)cc2)n1)C(=O)NCCN1CCCC1 [compound 147, (S)-6-((1-oxo-1-((2-(pyrrolidin-1-yl)ethyl)amino)propan-2-yl)oxy)-2-(4-((5-(trifluoromethyl)pyridin-2-yl)oxy)phenyl)pyrimidine-4-carboxamide]
> 20 µM	NC(=O)c1cc(N[C@H]2CCNC2=O)nc(-c2ccc(Oc3ncc(OCC(F)(F)F)cn3)cc2)n1 [compound 148, (S)-6-((2-oxopyrrolidin-3-yl)amino)-2-(4-((5-(2,2,2-trifluoroethoxy)pyrimidin-2-yl)oxy)phenyl)pyrimidine-4-carboxamide]
0.95 µM	NC(=O)c1cc(N[C@H]2CCNC2=O)nc(N2CC(Oc3ccc(C(F)(F)F)cn3)C2)n1 [compound 150, (S)-6-((2-oxopyrrolidin-3-yl)amino)-2-(3-((5-(trifluoromethyl)pyridin-2-yl)oxy)azetidin-1-yl)pyrimidine-4-carboxamide]
0.35 µM	NC(=O)c1cc(N[C@H]2CCNC2=O)nc(-c2ccc(Oc3cnc(OCC(F)(F)F)cn3)cc2)n1 [compound 151, (S)-6-((2-oxopyrrolidin-3-yl)amino)-2-(4-((5-(2,2,2-trifluoroethoxy)pyrazin-2-yl)oxy)phenyl)pyrimidine-4-carboxamide]
> 20 µM	NC(=O)c1cc(N[C@H]2CCNC2=O)nc(-c2ccc(Oc3ccc(C(F)(F)F)nn3)cc2)n1 [compound 152, (S)-6-((2-oxopyrrolidin-3-yl)amino)-2-(4-((6-(trifluoromethyl)pyridazin-3-yl)oxy)phenyl)pyrimidine-4-carboxamide]
1.13 µM	NC(=O)c1cc(N[C@H]2CCNC2=O)nc(-c2ccc(Oc3ccc(OCC(F)(F)F)nn3)cc2)n1 [compound 153, (S)-6-((2-oxopyrrolidin-3-yl)amino)-2-(4-((6-(2,2,2-trifluoroethoxy)pyridazin-3-yl)oxy)phenyl)pyrimidine-4-carboxamide]

SMILES	IC50
NC(=O)c1cc(N[C@H]2CCNC2=O)nc(N2C3CCC2CC(Oc2ccc(C(F)(F)F)cc2)C3)n1 (stereo partly drawn) [compound 135, 6-(((S)-2-oxopyrrolidin-3-yl)amino)-2-(3-(4-(trifluoromethyl)phenoxy)-8-azabicyclo[3.2.1]octan-8-yl)pyrimidine-4-carboxamide]	1.62 µM
NC(=O)c1cc(N[C@H]2CCNC2=O)nc(C2=C[C@H]3CC[C@@H](C2)N3Cc2ccc(F)cc2)n1 [compound 138, 2-((1R,5S)-8-(4-fluorobenzyl)-8-azabicyclo[3.2.1]oct-2-en-3-yl)-6-(((S)-2-oxopyrrolidin-3-yl)amino)pyrimidine-4-carboxamide]	> 20 µM
NC(=O)c1cc(N[C@H]2CCNC2=O)nc(N2C3CCC2CC(Oc2ccc(C(F)(F)F)cc2-c2ccncc2)C3)n1 (stereo partly drawn) [compound 154, 6-(((S)-2-oxopyrrolidin-3-yl)amino)-2-(3-(2-(pyridin-4-yl)-4-(trifluoromethyl)phenoxy)-8-azabicyclo[3.2.1]octan-8-yl)pyrimidine-4-carboxamide]	0.13 µM
